Measured values from patent publication US11078198B2 (BRISTOL-MYERS SQUIBB COMPANY, priority 2017, dated 2021).

Target: T1, human FXR (Homo sapiens, UniProt Q96RI1)
T1 construct: expressed in transfected cells; host or cells: HEK293 cells stably carrying a 5xGal4-response-element firefly luciferase reporter, transiently transfected with pcDNA3.1-Gal4-FXR
T1 sequence (Q96RI1 262-486 limits assumed): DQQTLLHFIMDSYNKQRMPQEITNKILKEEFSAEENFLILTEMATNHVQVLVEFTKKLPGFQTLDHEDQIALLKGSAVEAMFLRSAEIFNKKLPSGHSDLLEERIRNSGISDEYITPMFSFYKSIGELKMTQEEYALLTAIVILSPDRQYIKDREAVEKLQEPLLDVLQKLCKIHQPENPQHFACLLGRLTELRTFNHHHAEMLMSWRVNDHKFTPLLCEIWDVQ
Assay: transient human FXR/Gal4-luciferase reporter assay
Format: cell-based
Details: Gal4-hFXR transfected HEK293 reporter cells; relative to 8 μM GW-4064
Experimental: A Gal4-hFXR fusion construct reporter system was used as the primary assay to characterize compound activity. A construct including 5 copies of the Gal4 promoter response element upstream of a firefly luciferase reporter cDNA was stably expressed in HEK293 cells. This reporter cell line was maintained in Dulbecco's Modified Eagle's medium (DMEM; Gibco) supplemented with 1% penicillin-streptomycin (P/S) solution, 500 μg/mL Zeocin and 10% charcoal/dextran-treated fetal bovine serum (cs-FBS) at 37° C. in a humidified 5% CO2 atmosphere. Another plasmid was constructed in which the human cytomegalovirus promoter in the pcDNA3.1 vector directs the expression of the cDNA encoding a fusion protein comprised of the DNA binding domain from the Gal4 transcription factor fused to the ligand binding domain from human FXR.
The day prior to transfection, the reporter cells in culture are detached from the plate with trypsin and plated into a T75 flask at a sufficient density to achieve approximately 90% confluence the next morning. The transfection reagents are prepared by separately diluting 25 μg of the pcDNA3.1-Gal4-FXR plasmid into 1.87 mL of Opti-MEM (Thermo-Fisher), and 40 μL of Lipofectamine 2000 (Thermo-Fisher) into 1.87 mL of Opti-MEM, and then adding the diluted DNA solution into the diluted Lipofectamine 2000 solution and incubating at room temperature for 15-20 minutes. The mixture is further diluted with 10 mL of a solution comprised of DMEM, 10% cs-FBS, and 1% P/S immediately prior to transferring to the cells. The maintenance culture media is aspirated from the cells and the final transfection mixture is added before the cells are incubated overnight at 37° C. in a humidified 5% CO2 atmosphere. This protocol can be scaled up, and the transiently transfected cells can be cryopreserved in an assay-ready format.
For compound testing, 100 nL of the compounds (serial dilutions in DMSO) are dispensed with an Echo acoustic dispenser (Labcyte) into the wells of a Corning/Costar clear bottom 384-well white plate. The transfected cells are harvested, counted, and diluted such that 10-25,000 cells in 25 μL are plated into each well of the 384-well compound assay plate. The compound-treated cells are incubated overnight at 37° C. in a humidified 5% CO2 atmosphere.

| EC50 [nM] | Structure (SMILES) |
| --- | --- |
| 87 | O=C(O)c1ccn2nc(N3CCC4(C=C(c5c(-c6ccccc6C(F)(F)F)noc5C5CC5)C4)CC3)ncc12 [Example 135, 2-(2-(5-Cyclopropyl-3-(2-(trifluoromethyl)phenyl)isoxazol-4-yl)-7-azaspiro[3.5]non-1-en-7-yl)pyrrolo[2,1-f][1,2,4]triazine-5-carboxylic acid] |
| 275 | Cn1cc(C(=O)O)c2ccc(N3CCC4(CC3)CC(c3c(C(F)F)cnn3-c3ccccc3C(F)(F)F)C4)cc21 [Example 222, 6-(2-(4-(Difluoromethyl)-1-(2-(trifluoromethyl)phenyl)-1H-pyrazol-5-yl)-7-azaspiro[3. 5]nonan-7-yl)-1-methyl-1H-indole-3-carboxylic acid] |
| 267 | Cc1nc(C(=O)O)c2ccc(N3CCC4(C=C(c5c(-c6c(Cl)cccc6Cl)noc5C5CC5)C4)CC3)cn12 [Example 127, 6-(2-(5-Cyclopropyl-3-(2,6-dichlorophenyl)isoxazol-4-yl)-7-azaspiro[3.5]non-1-en-7-yl)-3-methylimidazo[1,5-a]pyridine-1-carboxylic acid] |
| 62 | COc1cc(C(=O)O)nc2ccc(N3CCC4(C=C(c5c(-c6ccccc6C(F)(F)F)noc5C5CC5)C4)CC3)cc12 [Example 105, 6-(2-(5-Cyclopropyl-3-(2-(trifluoromethyl)phenyl)isoxazol-4-yl)-7-azaspiro[3.5]non-1-en-7-yl)-4-methoxyquinoline-2-carboxylic acid] |
| 54 | COc1cc(C(=O)O)nc2ccc(N3CCC4(C=C(c5c(-c6c(Cl)cc(F)cc6Cl)noc5C5CC5)C4)CC3)cc12 [Example 112, 6-(2-(5-Cyclopropyl-3-(2,6-dichloro-4-fluorophenyl)isoxazol-4-yl)-7-azaspiro[3.5]non-1-en-7-yl)-4-methoxyquinoline-2-carboxylic acid] |
| 182 | Cc1cc(C(=O)O)cc2sc(N3CCC4(C=C(c5c(C(F)F)cnn5-c5ccccc5OC(F)(F)F)C4)CC3)nc12 [Example 221, 2-(2-(4-(Difluoromethyl)-1-(2-(trifluoromethoxy)phenyl)-1H-pyrazol-5-yl)-7-azaspiro[3.5]non-1-en-7-yl)-4-methylbenzo[d]thiazole-6-carboxylic acid] |
| 75 | COc1cc(C(=O)NS(C)(=O)=O)nc2ccc(N3CCC4(C=C(c5c(-c6c(Cl)cncc6Cl)noc5C5CC5)C4)CC3)cc12 [Example 195, 6-(2-(5-Cyclopropyl-3-(3,5-dichloropyridin-4-yl)isoxazol-4-yl)-7-azaspiro[3.5]non-1-en-7-yl)-4-methoxy-N-(methylsulfonyl)quinoline-2-carboxamide] |
| 3310 | Cn1nc(N2CCC3(C=C(c4c(-c5ccccc5C(F)(F)F)noc4C4CC4)C3)CC2)c2ccc(C(=O)O)cc21 [Example 134, 3-(2-(5-Cyclopropyl-3-(2-(trifluoromethyl)phenyl)isoxazol-4-yl)-7-azaspiro[3.5]non-1-en-7-yl)-1-methyl-1H-indazole-6-carboxylic acid] |
| 35 | CS(=O)(=O)NC(=O)c1cc(F)c2nc(N3CCC4(C=C(c5c(-c6c(Cl)cccc6Cl)noc5C5CC5)C4)CC3)sc2c1 [Example 180, 2-(2-(5-Cyclopropyl-3-(2,6-dichlorophenyl)isoxazol-4-yl)-7-azaspiro[3.5]non-1-en-7-yl)-4-fluoro-N-(methylsulfonyl)benzo[d]thiazole-6-carboxamide] |
| 37 | CC(C)c1onc(-c2c(Cl)cncc2Cl)c1C1=CC2(CCN(c3ccc4nc(C(=O)O)cc(C(F)(F)F)c4c3)CC2)C1 [Example 95, 6-(2-(3-(3,5-Dichloropyridin-4-yl)-5-isopropylisoxazol-4-yl)-7-azaspiro[3.5]non-1-en-7-yl)-4-(trifluoromethyl)quinoline-2-carboxylic acid] |
| 995 | O=C(O)c1cc(F)c2nc(N3CCC4(CC3)CC(c3c(C(F)F)cnn3-c3ccccc3C(F)(F)F)C4)sc2c1 [Example 215, 2-(2-(4-(Difluoromethyl)-1-(2-(trifluoromethyl)phenyl)-1H-pyrazol-5-yl)-7-azaspiro[3.5]nonan-7-yl)-4-fluorobenzo[d]thiazole-6-carboxylic acid] |

More lines, now with the values behind:

| Structure (SMILES) | EC50 [nM] |
| --- | --- |
| Cn1cc(C(=O)O)c2ccc(N3CCC4(C=C(c5c(-c6c(Cl)cccc6Cl)noc5C5CC5)C4)CC3)nc21 [Example 7, 6-(2-(5-Cyclopropyl-3-(2,6-dichlorophenyl)isoxazol-4-yl)-7-azaspiro[3.5]non-1-en-7-yl)-1-methyl-1H-pyrrolo[2,3-b]pyridine-3-carboxylic acid] | 24 |
| O=C(O)c1ccc(N2[C@@H]3CC[C@H]2CC2(C=C(c4c(-c5c(Cl)cccc5Cl)noc4C4CC4)C2)C3)nc1 (mixture of isomers) [Example 12, 6-(3′-(5-Cyclopropyl-3-(2,6-dichlorophenyl)isoxazol-4-yl)-8-azaspiro[bicyclo[3.2.1]octane-3,1′-cyclobutan]-2′-en-8-yl)nicotinic acid] | 182 |
| Cc1cccc(Cl)c1-c1noc(C2CC2)c1C1=CC2(CCN(c3ccc4nc(C(=O)O)cc(C(F)(F)F)c4c3)CC2)C1 [Example 89, 6-(2-(3-(2-Chloro-6-methylphenyl)-5-cyclopropylisoxazol-4-yl)-7-azaspiro[3.5]non-1-en-7-yl)-4-(trifluoromethyl)quinoline-2-carboxylic acid] | 202 |
| O=C(O)c1cc(F)c2nc(N3CCC4(CC3)COC(c3c(-c5ccccc5OC(F)(F)F)noc3C3CC3)O4)sc2c1 (centres unmarked) [Example 42, 2-(2-(5-cyclopropyl-3-(2-(trifluoromethoxy)phenyl)isoxazol-4-yl)-1,3-dioxa-8-azaspiro[4.5]decan-8-yl)-4-fluorobenzo[d]thiazole-6-carboxylic acid] | 1000 |
| COc1cc(C(=O)O)c2nc(N3CCC4(C=C(c5c(-c6c(Cl)cncc6Cl)noc5C5CC5)C4)CC3)sc2c1 [Example 70, 2-(2-(5-Cyclopropyl-3-(3,5-dichloropyridin-4-yl)isoxazol-4-yl)-7-azaspiro[3.5]non-1-en-7-yl)-6-methoxybenzo[d]thiazole-4-carboxylic acid] | 4400 |
| CC(C)c1onc(-c2c(Cl)cccc2Cl)c1C1=CC2(CCN(c3nc4c(F)cc(C(=O)O)cc4s3)CC2)C1 [Example 49, 2-(2-(3-(2,6-Dichlorophenyl)-5-isopropylisoxazol-4-yl)-7-azaspiro[3.5]non-1-en-7-yl)-4-fluorobenzo[d]thiazole-6-carboxylic acid] | 57 |
| O=C(O)c1ccc2oc(N3CCC4(C=C(c5c(-c6c(Cl)cccc6Cl)noc5C5CC5)C4)CC3)nc2c1 [Example 26, 2-(2-(5-Cyclopropyl-3-(2,6-dichlorophenyl)isoxazol-4-yl)-7-azaspiro[3.5]non-1-en-7-yl)benzo[d]oxazole-5-carboxylic acid] | 157 |
| O=C(O)c1cc(F)c2nc(N3CCC4(C=C(c5c(-c6ncccc6Cl)noc5C5CC5)C4)CC3)sc2c1 [Example 46, 2-(2-(3-(3-Chloropyridin-2-yl)-5-cyclopropylisoxazol-4-yl)-7-azaspiro[3.5]non-1-en-7-yl)-4-fluorobenzo[d]thiazole-6-carboxylic acid] | 200 |
| O=C(O)c1cccc(N2CCC3(C=C(c4c(-c5c(Cl)cccc5Cl)noc4C4CC4)C3)CC2)n1 [Example 4, 6-(2-(5-Cyclopropyl-3-(2,6-dichlorophenyl)isoxazol-4-yl)-7-azaspiro[3.5]non-1-en-7-yl) picolinic acid] | 712 |
| COc1cc(N2CCC3(C=C(c4c(-c5c(Cl)cncc5Cl)noc4C4CC4)C3)CC2)ncc1C(=O)O [Example 76, 6-(2-(5-Cyclopropyl-3-(3,5-dichloropyridin-4-yl)isoxazol-4-yl)-7-azaspiro[3.5]non-1-en-7-yl)-4-methoxynicotinic acid] | 2150 |
| O=C(O)c1cc(C(F)(F)F)c2cc(N3CCC4(C=C(c5c(-c6cccnc6C(F)(F)F)noc5C5CC5)C4)CC3)ccc2n1 [Example 92, 6-(2-(5-Cyclopropyl-3-(2-(trifluoromethyl)pyridin-3-yl)isoxazol-4-yl)-7-azaspiro[3.5]non-1-en-7-yl)-4-(trifluoromethyl)quinoline-2-carboxylic acid] | 253 |
| O=C(O)c1cc(OC(F)F)c2cc(N3CCC4(C=C(c5c(-c6c(Cl)cncc6Cl)noc5C5CC5)C4)CC3)ccc2n1 [Example 73, 6-(2-(5-Cyclopropyl-3-(3,5-dichloropyridin-4-yl)isoxazol-4-yl)-7-azaspiro[3.5]non-1-en-7-yl)-4-(difluoromethoxy)quinoline-2-carboxylic acid] | 16 |
